{"source": "ChEMBL document CHEMBL1148143", "about": "“Globulixanthones A and B, two new cytotoxic xanthones with isoprenoid groups from the root bark of Symphonia globulifera” (J Nat Prod, 2002)", "test_system": "KB", "experiment": "Cytotoxicity against human KB cells", "format": "functional, cell-based", "data": [{"smiles": "C=C(C)/C=C/c1cc2c(=O)c3c(O)cccc3oc2c(OC)c1O", "note": "[GLOBULIXANTHONE A]", "values": [{"measurement": "IC50", "value": 2.15, "unit": "µg/mL"}]}, {"smiles": "CC(C)=CCCC1(C)C=Cc2c(cc(O)c3oc4cccc(O)c4c(=O)c23)O1", "note": "(configuration not stated) [GLOBULIXANTHONE B]", "values": [{"measurement": "IC50", "value": 1.78, "unit": "µg/mL"}]}]}
